Test results reported in the NIST ThermoML archive (doi:10.1016/j.jct.2007.10.006).
± gives the expanded uncertainty stated by the source.

Details: Crystal; thermal analyzer

Normal melting temperature: 268.1 ± 1 °C
SMILES: Oc1ccc(/C=C/c2cc(O)cc(O)c2)cc1 [5-[(1E)-2-(4-hydroxyphenyl)-ethenyl]-1,3-benzenediol]
